Molecules are shown by their SMILES.

For test [1], the system named is liver cholesterol. Nature of the test: Liver cholesterol (deposition of cholesterol and fat in the liver) of mice fed a cholesterol-rich diet (Table 1). It is filed as in vivo. The following applies: for Liver cholesterol: 0.2% in diet, oral, 8 to 12 days.
Test [2] concerns total cholesterol value in the blood serum. Nature of the test: Total cholesterol in blood serum of mice fed a diet enriched with cholesterol and bile acids (Table 1). The following applies: 0.2% in diet, 8 to 12 days; for Serum cholesterol: oral. The class given is in vivo. The method, then:
The effectiveness of the compounds was tested by using mice fed on a specific diet which was enriched with cholesterol and bile acids. […] The amide compound as well was mixed with the specific diet in an amount of 0.2%, and continuously administered orally for 8 to 12 days. Then the total cholesterol value in the blood serum of the animals was evaluated.

[3] abbreviates: experiment [III], control not given.

`CCCCC/C=C\C/C=C\CCCCCCCC(=O)NC(CC)c1ccccc1` (single isomer, unassigned; (-)) [(-) (α-Ethylbenzyl)-linoleamide] had a Liver cholesterol in test [1] (experiment [II], control 3308) of 821 mg/100 g. The Serum cholesterol in test [2] (experiment [II], control 521) is listed as 251 mg %.
For `CC(C)CCCCCCCCCCCCCCC(=O)NC(C)c1ccccc1` (single isomer, unassigned; (-)) [(-) (α-Methylbenzyl)-isostearamide], the Liver cholesterol in test [1] (experiment [II], control 3308) stood at 777 mg/100 g. Besides, in test [2] (experiment [II], control 521), the Serum cholesterol is given as 246 mg %.
For `CCCCC/C=C\C/C=C\CCCCCCCC(=O)NC(C)c1ccccc1` (single isomer, unassigned; (-)) [(-) (α-Methylbenzyl)-linoleamide] the same measures were 908 mg/100 g and 286 mg %.
Taken in the same sequence, the figures for `CC/C=C\C/C=C\C/C=C\CCCCCCCC(=O)NC(C)c1ccccc1` (single isomer, unassigned; (-)) [(-) (α-Methylbenzyl)-linolenamide] were 767 mg/100 g and 253 mg %.
For the compound `CCCCCCCC/C=C\CCCCCCCC(=O)NC(C)c1ccccc1` (single isomer, unassigned; (-)) [(-) (α-Methylbenzyl)-oleamide], the Liver cholesterol in test [1] (experiment [II], control 3308) worked out at 808 mg/100 g. Further, the Serum cholesterol in test [2] (experiment [II], control 521) turned out to be 283 mg %.
As for `CCCCCC=CCC=CCCCCCCCC(=O)NC(Cc1ccccc1)c1ccccc1` (centres unmarked) [C17 H31 CO], the Liver cholesterol in test [1] (experiment [V], control 2640) came out at 544 mg/100 g. Also, the Serum cholesterol in test [2] (experiment [V], control 372) is listed as 214 mg %.
In the case of `CCCCC/C=C\C/C=C\CCCCCCCC(=O)O` [Linoleic acid, reference compound], in test [1] (animals fed on a diet rich in cholesterol), the “prevention of deposition of cholesterol and fat in the liver” value is on record as “such effectiveness is never observed”. Further, the Liver cholesterol in test [1] (experiment [II], control 3308) is listed as 4491 mg/100 g; in test [1] (experiment [I], control 3585), 4585 mg/100 g; in test [1] (experiment [VII], control 3535) it was 4550 mg/100 g; in test [1] (experiment [V], control 2640) it was 3124 mg/100 g. Further, the Serum cholesterol was determined as 329 mg % in test [2] (experiment [II], control 521); 324 mg % in test [2] (experiment [I], control 546); 341 mg % in test [2] (experiment [VII], control 508); 351 mg % in test [2] (experiment [V], control 372). For the same compound, the “ineffective cases and variation of effectiveness” value in test [2] (mice) was “ineffective cases were sometimes observed due to the individual difference of the animals, and the effectiveness varied considerably even in the same individual animal”.
`CCCCCC=CCC=CCCCCCCCC(=O)NC(Cc1ccccc1)c1ccccc1` (stereo not drawn) [d- C17 H31 CO] came in with a Liver cholesterol in test [1] (experiment [V], control 2640) of 500 mg/100 g. Also, the Serum cholesterol in test [2] (experiment [V], control 372) is 200 mg %.
In test [1] (experiment [V], control 2640), `CCCCCCCC/C=C\CCCCCCCC(=O)NC(Cc1ccccc1)c1ccccc1` (stereo not drawn) [d- drawing 33] registered a Liver cholesterol of 729 mg/100 g. Also, the Serum cholesterol in test [2] (experiment [V], control 372) is 222 mg %.
For `CC(C)CCCCCCCCCCCCCCC(=O)NC(Cc1ccccc1)c1ccccc1` (stereo not drawn) [d- iso-C17 H35 CO] the same measures were 561 mg/100 g and 209 mg %.
The compound `CCCCCCCC/C=C\CCCCCCCC(=O)NC(C)c1ccccc1` (centres unmarked) [drawing 7] displayed a Liver cholesterol in test [1] (experiment [II], control 3308) of 815 mg/100 g. The compound further came in with a Serum cholesterol in test [2] (experiment [II], control 521) of 290 mg %.
The compound `CCCCCCCC/C=C\CCCCCCCC(=O)NC(C)c1ccccc1` (centres unmarked) [drawing 8] showed a Liver cholesterol in test [1] (experiment [II], control 3308) of 1330 mg/100 g. This compound also came in with a Serum cholesterol in test [2] (experiment [II], control 521) of 295 mg %.
Compound `CCCCCCCCCCCCCC(=O)NC(C)c1ccccc1` (centres unmarked) [drawing 9] had a Liver cholesterol in test [1] (experiment [II], control 3308) of 1620 mg/100 g. For the same compound, the Serum cholesterol in test [2] (experiment [II], control 521) is 302 mg %.
In the case of `CCCCCCCCCCCCCC(=O)NC(C)c1ccccc1` (centres unmarked) [drawing 10], in test [1] (experiment [II], control 3308), the Liver cholesterol was determined as 1820 mg/100 g. Besides, the Serum cholesterol in test [2] (experiment [II], control 521) is listed as 252 mg %.
Taken in the same sequence, the figures for `CCCCCCCCCCCCCCCC(=O)NC(C)c1ccccc1` (centres unmarked) [drawing 11] were 906 mg/100 g and 300 mg %.
Taken in the same sequence, the figures for `CCCCCCCCCCCCCCCC(=O)NC(C)c1ccccc1` (centres unmarked) [drawing 12] were 1160 mg/100 g and 314 mg %.
Taken in the same sequence, the figures for `CCCCC/C=C\C/C=C\CCCCCCCC(=O)NC(CC)c1ccccc1` (centres unmarked) [drawing 13] were 992 mg/100 g and 274 mg %.
In test [1] (experiment [II], control 3308), `CCCCC/C=C\C/C=C\CCCCCCCC(=O)NC(CC)c1ccccc1` (centres unmarked) [drawing 14] had a Liver cholesterol of 1042 mg/100 g. Further, in test [2] (experiment [II], control 521), the Serum cholesterol was found to be 302 mg %.
Compound `CCCCC/C=C\C/C=C\CCCCCCCC(=O)NC(C)c1ccc(Cl)cc1` (centres unmarked) [drawing 17] gave a Liver cholesterol in test [1] (setting [3]) of 946 mg/100 g. Also, the Serum cholesterol in test [2] (experiment [III], control 471) was 225 mg %.
In test [1] (setting [3]), `CCCCC/C=C\C/C=C\CCCCCCCC(=O)NC(C)c1ccc(Cl)c(Cl)c1` (centres unmarked) [drawing 18] displayed a Liver cholesterol of 856 mg/100 g. In test [2] (experiment [III], control 471), this compound registered a Serum cholesterol of 315 mg %.
Taken in the same sequence, the figures for `CCCCC/C=C\C/C=C\CCCCCCCC(=O)NC(CC)c1ccc(C)cc1` (centres unmarked) [drawing 21] were 1065 mg/100 g and 242 mg %.
Taken in the same sequence, the figures for `CCCCC/C=C\C/C=C\CCCCCCCC(=O)NC(C)c1ccc(C)cc1` (centres unmarked) [drawing 22] were 1047 mg/100 g and 237 mg %.
As to `CCCCC/C=C\C/C=C\CCCCCCCC(=O)NC(C)c1ccc(C)cc1` (centres unmarked) [drawing 23], the Liver cholesterol in test [1] (experiment [IV], control 3145) is on record as 828 mg/100 g. The Serum cholesterol in test [2] (experiment [IV], control 595) came to 240 mg %.
Consider `CCCCC/C=C\C/C=C\CCCCCCCC(=O)NC(CC)c1ccc(C)cc1` (centres unmarked) [drawing 24], for which the Liver cholesterol in test [1] (experiment [IV], control 3145) amounted to 908 mg/100 g. Also, the Serum cholesterol in test [2] (experiment [IV], control 595) is on record as 321 mg %.
Taken in the same sequence, the figures for `CCCCC/C=C\C/C=C\CCCCCCCC(=O)NC(C)c1ccc(Cl)cc1` (centres unmarked) [drawing 25] were 826 mg/100 g and 217 mg %.
For `CCCCC/C=C\C/C=C\CCCCCCCC(=O)NC(C)c1ccc(Cl)c(Cl)c1` (centres unmarked) [drawing 26] the same measures were 1000 mg/100 g and 251 mg %.
Taken in the same sequence, the figures for `CC/C=C\C/C=C\C/C=C\CCCCCCCC(=O)NC(C)c1ccccc1C` (centres unmarked) [drawing 29] were 913 mg/100 g and 222 mg %.
`CC/C=C\C/C=C\C/C=C\CCCCCCCC(=O)NC(Cc1ccccc1)c1ccccc1` (centres unmarked) [drawing 32] showed a Liver cholesterol in test [1] (experiment [V], control 2640) of 729 mg/100 g. Further, in test [2] (experiment [V], control 372), the Serum cholesterol was 238 mg %.
Taken in the same sequence, the figures for `CCCCCCCC/C=C\CCCCCCCC(=O)NC(Cc1ccccc1)c1ccccc1` (centres unmarked) [drawing 33] were 831 mg/100 g and 245 mg %.
As to `CCCCC/C=C\C/C=C\CCCCCCCC(=O)NC(C)c1ccc([N+](=O)[O-])cc1` (centres unmarked) [drawing 44], the Liver cholesterol in test [1] (experiment [VIII], control 2652) is listed as 1603 mg/100 g. Moreover, in test [2] (experiment [VIII], control 472), the Serum cholesterol is on record as 340 mg %.
Regarding `CCCCC/C=C\C/C=C\CCCCCCCC(=O)NC12CC3CC(CC(C3)C1)C2` [drawing 53], the Liver cholesterol in test [1] (experiment [IX], control 2200) was 721 mg/100 g. In addition, the Serum cholesterol in test [2] (experiment [IX], control 336) was found to be 288 mg %.
In test [1] (experiment [X], control 3293), `CCCCC/C=C\C/C=C\CCCCCCCC(=O)NC(C)c1ccc(C)cc1` (centres unmarked) [drawing 61] had a Liver cholesterol of 820 mg/100 g. The compound further came in with a Serum cholesterol in test [2] (experiment [X], control 554) of 228 mg %.
As for `CCCCCCCC/C=C\CCCCCCCC(=O)NC(C)c1ccc(CC)cc1` (centres unmarked) [drawing 63], in test [1] (experiment [X], control 3293), the Liver cholesterol is reported as 1210 mg/100 g. In test [2] (experiment [X], control 554), this compound displayed a Serum cholesterol of 398 mg %.

The record behind these values is patent publication US3995059A, “Pharmaceutical compositions containing fatty acid amide derivatives” (Sumitomo Chemical Company, Limited, priority 1966, dated 1976).
